Counter-ions that a name gives are not always drawn.

The subject of one data set is COS-7 cells. Put plainly: CAT transient transfection. The format is cell-based. The protocol:
(§1) A one-to-one mixture (by weight) of the desired lipid and dioleylphosphatidyl ethanolamine was prepared in CHCl3. The CHCl3 was removed on the rotary evaporator to obtain a thin film of lipid mixture. The mixture was hydrated with enough water to obtain approximately 1.25 mg of lipid per ml of solution. The solution was passed through a microfluidizer twice and diluted to 1 mg/ml. The liposome formulation was then filtered through a 0.2 μ filter. Compound 8 was also formulated without DOPE either by sonication at 1 mg/ml in water or by dissolving a dried lipid film with ethanol and then adding water to give a final concentration of 2.5 mg/ml. Ethanol was 10% of that volume. In some instances, this was further diluted with water to 1 mg/ml, 4% ethanol.
(§2) Baby hamster kidney (BHK-21) , COS-7, HeLa-S3 cells, and normal human fibroblasts isolated from newborn foreskin dermis were grown in Dulbecco's-modified Eagle's medium (DMEM) containing 10% fetal bovine serum (FBS), 2 mM L-glutamine (gln), 0.1 mM MEM nonessential amino acids (NEAA), 100 U/ml penicillin, and 100 μg/ml streptomycin. NIH-3T3 cells were grown in DMEM containing 10% calf serum (CS), 2 mMgln, 0.1 mM NEAA 100 U/ml penicillin, and 100 μg/ml streptomycin. PC12 cells were grown in DMEMcontaining 10% horse serum, 5% FBS, 2 mM gln, 0 1 mMNEAA, 100 U/ml penicillin and 100 μ/ml streptomycin. Jurkat cells (human lymphoid cell line) were grown in RPMI-1640 supplemented with 10% FBS, 2mML-glutamine, 100 U/ml penicillin, and 100 μg/ml streptomycin. Human keratinocytes were isolated from newborn foreskin epidermis and cultured in Keratinocyte Growth Medium (Clonetics, San Diego, Ca.). All cell lines were maintained in a humidified incubator with a 5% CO2 atmosphere at 37° C.
(§3) pSV2CAT (5.0 Kb) was described previously (Gorman, C. M. et al. (1982) Mol. Cell. Biol. 2:1044). pCMVCAT (5.0 Kb) was also described previously (Foecking M. K. and Hofstetter, H. (1986) Gene 45:101). Plasmid DNA was purified by isopycnic centrifugation in CsCl/EtBr gradients after recovery by alkaline lysis (Maniatis, T. et al. (1982) in Molecular Cloning: A Laboratory Manual, Cold Spring Harbor Laboratory, Cold Spring Harbor, N.Y., pp. 90-91).
(§4) For transient transfection of pSV2CAT DNA or pCMVCAT DNA, cells were plated in 6-well tissue culture dishes (35 mm wells) and incubated overnight to approximately 60% confluency. To transfect cells in one well, 1-2 μg of pSV2CAT DNA or pCMVCAT DNA was diluted in 100 μl Opti-MEM I. Cationic lipids were diluted separately in another 100 μl aliquot of Opti-MEM I. The two solutions were then mixed in a polystyrene tube, incubated for 10-15 min at room temperature to allow the formation of a DNA-liposome complex, and diluted to one ml by adding 0.8 ml Opti-MEM I or DMEM containing 5% fetal bovine serum (FBS), 2 mMgln, 0.1 mMNEAA, and lacking antibiotics. The cells were washed once with Opti-MEM I or serum-free DMEM, and the DNA-liposome complex was added directly to the cells. After a six hr incubation at 37° C., the transfection complexes were removed and two ml of DMEM containing 10% FBS, 2 mMgln, 0.2 mMNEAA, 100 U/ml penicillin, and 100 μg/ml streptomycin, was added to each well. Note: human keratinocytes were cultured and transfected in Keratinocyte Growth Medium. Cells were incubated for an additional 48 hrs and lysed in situ by freeze-thawing once or twice in 300 μl 0.1M Tris-HC1, pH 7.8-8.0 containing 0 1% Triton X-100. Cell lysates were assayed for CAT activity.
(§5) Cell lysates were assayed for CAT activity as described by Neumann et al. (1987) BioTechniques 5:444 using [^14 C]-butyryl coenzyme A (New England Nuclear, Boston, Mass.). The enzyme reactions were incubated for 2 hrs at 37° C., overlayed with 3.0 ml Econofluor (New England Nuclear) and then incubated for an additional 2 hrs to allow diffusion of the acetylated chloramphenicol into the scintillation fluid. CAT activity was determined by measuring radioactivity in a liquid scintillation counter. […]

A further data set deals with normal human fibroblasts. In words: CAT transient transfection. In kind it is cell-based. The protocol: as §1, §2, §3, §4, §5
The subject of data set [1] is normal human keratinocytes. In words: CAT transient transfection. The format is cell-based. The conditions noted are these: keratinocytes. On the procedure:
as §1, §2, §3, §4, §5

Data set [2] deals with Jurkat cells. In words: CAT transient transfection. In kind it is cell-based, human. The protocol: as §1, §2, §3
(§6) For transient nuclear expression of pSV2CAT or pCMVCAT in Jurkat cells, cells were washed with Opti-MEM I or serum-free RPMI 1640 containing 2 mM gln and plated in six-well plates at a density of 3×10^6 cells per well in 0.8 ml Opti-MEM I or RPMI 1640. For each transfection, 5 μg pSV2CAT DNA or 2 μg pCMVCAT DNA was diluted in 100 μl Opti-MEM I. Lipids were diluted separately in another 100 μl aliquot of Opti-MEMI. The two solutions were then mixed in a polystyrene tube and incubated for 10-15 min at room temperature. The DNA-liposome complex was added to the cell suspensions and incubated 6 hours at 37° C., after which 4 ml growth medium were added per well (RPMI-1640; 10% FBS). Phorbol myristate acetate (Sigma Chemical Co., St. Louis, Mo.) and phytohemagglutinin (Sigma) were also added to a final concentration of 50 ng/ml and 1 μg/ml, respectively, to activate the cells. Cells were harvested at approximately 48 hours post-transfection by centrifugation. Cell lysates were prepared by resuspending cell pellets at 0° C. in 0.1 M Tris-HC1 pH 8.0 containing 0.1% Triton X-100 and freeze-thawing once. Cell lysates were cleared by centrifugation and assayed for CAT activity.
as §5

The nature of data set [3]: % protein (toxicity estimate, Bradford) after transfection. In kind it is cell-based, human. To be noted: human, jurkat cells, 15 μg lipid; 2 μg pCMVCAT; 6 h RPMI1640. On the procedure:
as §1, §2, §6
(§7) The "% protein" column indicates the relative amount of protein in the sample tested for CAT activity and therefore provides a way to estimate toxicity of the compounds being tested. The "CAT Activity" column indicates the relative transfection effectiveness of the lipid formulation in the various cell lines. The control sample was a cell culture grown under similar conditions as those that were transfected, but with no DNA or cationic lipid added. Protein was measured using a commercially available Bradford protein assay (BioRad Laboratories, Richmond, Ca.).
(§8) Jurkat cells (3 × 10^6 cells) were transfected in OPTIMEM with
(§9) μg of pSV2CAT DNA for 6 hours.
(§10) DNA-lipid complexes were made in OPTIMEM. Jurkat cells (3 × 10^
(§11) cells) were transfected in RPMI1640 with 2 μg of pCMVCAT DNA for 6

In data set [4] the test system is Jurkat cells. The data set is described as above. The format is cell-based, human. The conditions noted are these: Jurkat. On the procedure: as §1, §2, §6, §7, §8, §9, §10, §11

`CCCCCCCC/C=C\CCCCCCCCOCC(C[N+](C)(C)CCNC(=O)C(CCCNCCCN)NCCCN)OCCCCCCCC/C=C\CCCCCCCC` (centres unmarked) [Compound 8, 1-Propanaminium, N-[2-[[2,5-bis[(3-amino]-1-oxopentyl]amino]ethyl]-n,n-dimethyl-2,3,-bis(9-octadecenyloxy)-, tetra(trifluoroacetate) salt]: the “CAT ACTIVITY” value is 14,282 CPM/150 ul with COS-7 cells (12 μg lipid, 1 μg pSV2CAT, 6 h DMEM) and 44,996 CPM/150 ul in the data set with Jurkat cells [2] (15 μg lipid, 2 μg pCMVCAT, 6 h RPMI1640). For the same molecule, the “DNA transfection (in words)” value with COS-7 cells (Cos-7) is “highly effective”; in the data set with normal human fibroblasts, “successfully transfected”; in data set [1] it was “highly effective”; in the data set with Jurkat cells [2] (Jurkat), “highly effective”. Besides, in data set [3], the viability at 6 h was 47%. Also, the “toxicity (in words)” value with Jurkat cells [4] is recorded as “minimal toxicity”.
